Experimental data from patent US20050043369A1, “Bactericidal antimicrobial methods and compositions for use in treating gram positive infections” (Protez Pharmaceuticals Inc., priority 2000, published 2005).
Read-outs that look alike come from different tables or passages of the source.

Columns and labels:
Format in all cases: cell-based, Staphylococcus aureus
S. aureus strain SA1199 = assay: Screening and titration of potentiators with erythromycin (4 μg/ml), viability read by transfer to fresh medium; conditions: in the presence of 4 μg/ml erythromycin
Method: In an exemplary screening assay, in order to identify a candidate acyl hydrazide, oxy amide or 8-hydroxy quinoline composition as an antibacterial agent potentiator, the S. aureus strain SA1199 may be used. The procedure for screening is as follows: logarithmically growing S. aureus SA1199 are inoculated to a final OD600 of 0.002 into 150 μl of LB medium containing a bacteriostatic concentration of an antimicrobial agent for that strain, for example, erythromycin (4 μg/ml) at four times the Minimal Inhibitory
Concentration (MIC). […] In preliminary studies the inventors determined that under these conditions up to 2000 viable cells were transferred after incubation with erythromycin. As confirmed by broth microdilution, at least a 1000-fold reduction in viability was required to see no visible growth after 20 hours. Acyl hydrazide, oxy amide or 8-hydroxy quinoline antibiotic potentiators may be identified as those compounds that increase the bactericidal effect of the erythromycin.
The macrolide erythromycin was chosen in the initial screen for two reasons: first, its mechanism of inhibition of protein synthesis is well characterized and second, as a macrolide, erythromycin is representative of an expanding class of agents which includes the second most prescribed antibiotic, azithromycin.
In preliminary studies the inventors determined that under these conditions up to 2000 viable cells were transferred after incubation with erythromycin. As confirmed by broth microdilution, at least a 1000-fold reduction in viability was required to see no visible growth after 20 h.
Next the activity of the hit compounds was compared by titration of the compounds in the presence of erythromycin at 4 μg/ml as described above.
(§1) Activity of the compound is depicted as the minimal concentration required to kill 99.9% of S. aureus in the presence of 4 μg/ml erythromycin.

S. aureus SA 29213 = assay: 55Fe transport assay (intracellular iron accumulation); conditions: compound at 2 μg/ml; S. aureus SA 29213
Method: Next, investigated was whether INF 401 affects intracellular iron accumulation. An ^55Fe transport assay (modified from Sebulsky, 2000) was used to examine the ability of INF 401 to transport iron inside the cell. Briefly, exponentially growing cells were diluted to OD600 0.1 in LB, incubated with ^55FeCl3 for 30 min at 37° C., washed and counted in scintillation fluid using the tritium channel of a scintillation system. […] However, the presence of INF 401 in either the absence or presence of antibiotic led to a dramatic increase in iron accumulation (209,215 and 231,621 DPM, respectively).
as §1

S. aureus SA1199 [1] = assay: Checkerboard two-fold broth microdilution, MIC and MBC; conditions: for MBC: read-out: MBC^a = MBC in the absence of INF 401; for MBC^b = MBC in the presence of 5 μg/ml of INF 401: plus 5 μg/ml INF 401, unit not given
Method: Checkerboard titration was performed with INF 401 and erythromycin to quantitate the effects of the combination on Staphylococcal growth using two-fold serial broth microdilution. After overnight incubation, cells were transferred to fresh medium, as described above, to determine those combinations that were bactericidal to S. aureus. […] Although not determined according to NCCLS recommended procedures ([…]), the inventors considered this the Minimal Bactericidal Concentration (MBC).
The inventors next evaluated whether INF 401 was bactericidal in combination with other protein synthesis inhibitors which are bacteriostatic to S. aureus. Checkerboard studies were performed with two-fold dilutions of each antibiotic in combination with INF 401 using the assay described above in Example 2. After overnight incubation the MIC of each antibiotic was determined by visualization of bacterial growth. […] The MBC of each antibiotic was determined as described in Example 2 in the absence or presence of INF 401.

S. aureus (SA1199) = assay: Time kill studies (CFU counts); conditions: antibiotic 1×MIC + 5 μg/ml INF 401
Method: FIG. 5A, FIG. 5B and FIG. 5C. […]
The initial inoculum number was determined by plating an appropriate dilution on LB agar plates and determining the number of colony forming units (CFUs). At different time points an aliquot was withdrawn from each tube and cell viability was determined by plating an appropriate dilution and counting CFUs after overnight incubation.

S. aureus ATCC 29213 = assay: MBEC assay system, checkerboard: planktonic MIC and biofilm MBEC; conditions: INF 401 at 0.3 μg/ml where in label
Method: These studies were performed via the method of Dr. Howard Ceri (University of Calgary), who recently developed a method for the routine determination of the antibiotic susceptibility of biofilms. To date, the inventors have tested the effect of the combination of INF 401 on the ability of either clindamycin or rifampin to eradicate S. aureus biofilms in vitro. S. aureus ATCC 29213 was selected for the study as previous studies of this isolate as a biofilm had been conducted and the isolate served as a quality assurance organism for NCCLS standardization of antibiotic testing. Biofilms were formed as previously described for this organism (Ceri et al., 1999) using the MBEC™ assay system. Checkerboard studies were performed with each antibiotic versus INF 401.

S. aureus SA1199 [2] = assay: Checkerboard two-fold broth microdilution, MIC and MBC; conditions: Table 2, plus 10 μg/ml INF 402, unit not given
[3] = system: S. aureus strain ATTC 29213; assay: Characterization of killing by INF 401 plus chloramphenicol (viability, morphology, protein, DNA, metal dependence); conditions: reversed by exogenous Fe3+
Method: Time kill study of the effect of NF 401 in combination with chloramphenicol. Exponentially growing cells (S. aureus strain 29213) were diluted to OD600 0.1 in LB supplemented with 20 μg/ml of chloramphenicol (Cm) in the presence or absence of INF 401 (2 μg/ml) and incubated with shaking at 37° C. At indicated time points cells were harvested, washed with LB and plated on LB agar plates. Number of colony forming units (CFUs) was determined after overnight incubation.
Time kill study of the effect of iron on the bactericidal activity of INF 401. S. aureus strain 29213 was grown overnight in iron-limited Staphylococcal Siderophore Detection (SSD) medium (Heinrichs, 1999) supplemented with 2 μM FeCl3, washed with SSD and diluted 1:100 into the fresh medium containing 0, 2 or 50 μm FeCl3. Exponentially growing cells were diluted to OD600 0.01 in the corresponding medium supplemented when indicated with 20 μg/ml of chloramphenicol (Cm) and 2 μg/ml of INF 401. At 0, 1, 2 and 3.5 hours cells were plated in different dilutions to the LB agar plates and number of colony forming units (CFUs) was counted next day.

[4] = Staphylococcus aureus, Table 1, S. aureus SA1199, antibiotic alone, unit inferred
[5] = Staphylococcus aureus, Table 1, S. aureus SA1199, unit inferred, read-out: MIC

| Structure (SMILES) | Activity (minimal concentration required to kill 99.9% of S. aureus) (S. aureus strain SA1199) [µg/mL] | ^55Fe Accm. (S. aureus SA 29213) | MBC (S. aureus SA1199 [1]; [4]) [µg/mL] | MIC (S. aureus SA1199 [1]; [5]) [µg/mL] | MBC^b = MBC in the presence of 5 μg/ml of INF 401 (S. aureus SA1199 [1]; Table 1, S. aureus SA1199) | further results |
| --- | --- | --- | --- | --- | --- | --- |
| O=C(Cc1ccccc1)N/N=C/c1c(O)ccc2ccccc12 | 0.15 | 36,941 DPM | – | – | – | – |
| O=C(N/N=C/c1c(O)ccc2ccccc12)Nc1ccccc1 | 0.3 | 14,400 DPM | – | – | – | – |
| COc1ccccc1NC(=O)N/N=C/c1c(O)ccc2ccccc12 | >10 | 1,900 DPM | – | – | – | – |
| Cc1cccc(CNC(=O)N/N=C/c2c(O)ccc3ccccc23)c1 | >10 | 1,500 DPM | – | – | – | – |
| Cc1ccc(CNC(=O)N/N=C/c2c(O)ccc3ccccc23)cc1 | 1.25 | 9,100 DPM | – | – | – | – |
| [H]/N=C(\N/C(=N/[H])NCCCCCCNC(=N)NC(=N)Nc1ccc(Cl)cc1)Nc1ccc(Cl)cc1 [Chlorhexidine] | – | – | 4 | 1 | 1 | – |
| CCC[C@@H]1C[C@@H](C(=O)N[C@@H]([C@H]2O[C@H](SC)[C@H](O)[C@@H](O)[C@H]2O)[C@H](C)Cl)N(C)C1 [Clindamycin] | – | – | 4 | 0.25 | 0.125 | bactericidal concentration of antibiotic alone as multiple of MIC (S. aureus SA1199 [1]; S. aureus, absence of INF 401): 4 ×MIC; MBC^a = MBC in the absence of INF 401 (S. aureus SA1199 [1]; Table 2, S. aureus SA1199, antibiotic alone, unit inferred): 4 µg/mL; MIC (S. aureus SA1199 [1]; Table 2, S. aureus SA1199, unit inferred): 0.25 µg/mL; reduction in cell viability, antibiotic in combination with INF 401 (S. aureus (SA1199)): 3 log10; MIC (S. aureus ATCC 29213; Staphylococcus aureus, ATCC29213, planktonic population): < 1 µg/mL; MBEC (S. aureus ATCC 29213; biofilm population): 256 µg/mL; MBC^b = MBC in the presence of 10 μg/ml of INF 402 (S. aureus SA1199 [2]): 2 |
| N[C@@H]1CON=C1O [Cycloserine] | – | – | > 256 | 32 | 32 | – |
| O=C(O)C(NCCNC(C(=O)O)c1ccccc1O)c1ccccc1O (stereo not drawn) [EDDHA] | – | – | – | – | – | effect of iron chelator on killing by INF 401 [3]: completely ablate killing |
